Laboratory results taken from patent EP0358766A1, “METHOD OF STERILIZING PLANT ANTHERS” (VSESOJUZNY NAUCHNO-ISSLEDOVATELSKY INST. SELSKOKHOZYAISTV. …, priority 1988, dated 1989).
Read-outs that look alike come from different tables or passages of the source.

What was measured:
[1] = system: Hirse Sorte Mironovskoye 94; assay: Field test of gametocidal activity, millet Mironovskoye 94; format: in vivo; settings: for Prozentsatz des Ansetzens von Samen bei freier Bestäubung: control = 100
Excerpt: (§1) Die gametozide Aktivität der erfindungsgemäßen Sterilisationsmittel war in Feldversuchen in verschiedenen bodenklimatischen Zonen mit Teilstücken von 10 m^2 Größe in dreibis viermaliger Wiederholung festgestellt. Jedes Sterilisationsmittel wurde mindenstens 5 Jahre lang geprüft.
(§2) Die Entwicklung der Perioden der Organogenese wird zytologisch überwacht. Die Behandlung von Pflanzen mit dem Sterilisationsmittel erfolgt am Anfang der fünften Periode der Organogenese nach Kupermann.
(§3) Mit dem Ährenschieben verwirklicht man die Isolierung von Hauptähren und anderen Stockwerken in Pergametbeuteln. Bei Weizen und Tritikale werden Einzelisolatoren benutzt. Bei Roggen schließt man je 1 Ähre von […] verschiedenen nebeneinander befindlichen Pflanzen unter einen gemeinsamen Isolator ein. Bei Hirse wird jede Rispe getrennt isoliert. Der Sterilitätsprozentsatz (X) für Weizen, Roggen, Tritikale und Hirse wird nach der Formel [formula] ermittelt.
(§4) Die Kornzahl in nicht isolierten Ähren von Kontrollpflanzen wird bedingt für 100 % Ansetzen bei freier Bestäubung angenommen.
(§5) Um zuverlässige Angaben zu erhalten, verwendet man 20 bis 25 Isolatoren je Wiederholung für Weizen und Tritikale, 10 bis 15 Isolatoren jeder Wiederholung für Roggen und Hirse.
Pflanzen der Hirse Sorte Mironovskoye 94 werden in der V.Periode der Organogenese mit einer 1%igen wäßrigen Emulsion von 1,1,3-Tribrompropan, 1,2,3-Tribrompropan, 1,2-Dibrompropan, 1,2-Dibrom-3-chlorpropan, 1,3-Dibrompropan, 1,1,1,3-Tetrabromheptan, 1,1,3-Tribromheptan, 1,2-Dibromheptan behandelt. Die Emulsion enthält 0,5 Masse% C12-C14--Kalziumalkylbenzolaulfonat und 0,01 Masse% Dimethylsulfoxid als Adjuvans. Der Verbrauch an Präparat beträgt 6 kg/ha bei 600 1 Wasserdurchsatz. Die Prüfergebnisse sind in der Tabelle 15 angegeben. Die gleichen Ergebnisse sind bei der Behandlung der Hirse Sorte Mironovskoye 94 in der VI. Periode der Organogenese erhalten.

diploidem Roggen Chulpan = assay: Field test of gametocidal activity, diploid rye Chulpan; format: in vivo; settings: for Prozentsatz des Ansetzens von Samen bei freier Bestäubung: control = 100
Excerpt: as §1, §2, §3, §4, §5
Pflanzen von diploidem Roggen Chulpan werden in der V.Periode der Organogenese mit einer 1%igen wäßrigen Emulsion von 1,1,3-Tribrompropan, 1,1,3-Tribrom-4-chlorbutan, 1,1,2,3-Tetrabrompropan, 1,2,3-Tribrompropan, 1,2-Dibrompropan, 1,1,3-Tribrom-3-ohlorpropan, 1,2-Dibrom-3--chlorpropan, 1,3-Dibrompropan, 1,1,1,3-Tetrabromheptan, 1,1,3-Tribromheptan bzw. 1,2-Dibromheptan behandelt. Die Emulsion enthält 0,5 Masse% C12-C14-Kalziumalkylbenzolsul- fonat und 0,01 Masse% Dimethylsulfoxid. Der Verbrauch an Präparat beträgt 10 kg/ha. Die Prüfergebnisse sind in der Tabelle 11 angegeben. Die gleichen Ergebnisse sind bei der Behandlung von diploidem Roggen Chulpan in der VI. Periode der Organogenese erhalten.

[2] = system: Winterweizens Sorte Mironowskaya 808; assay: Field test of gametocidal activity (anther sterilisation), winter wheat Mironowskaya 808; format: in vivo, Weizen; settings: for Prozentsatz des Ansetzens von Samen bei freier Bestäubung: control = 100; for pest or weed control at 1 %, 10000 g/ha: read-out: Prozentsatz der Sterilität %
Excerpt: as §1, §2, §3, §4, §5
Pflanzen des Winterweizens Sorte Mironowskaya 808 werden in der V.Periode der Organogenese durch Zerstäubung der 2%igen wäßrigen Emulsion von 1,1,3-Tribrompropan mit Hilfe einer Rückenspritze behandelt.
Als Emulgierungsmittel setzt man 0,5 Masse% C12-C14--Kalziumalkylbenzolsulphonat zu. Als Adjuvans enthält die Emulsion 0,01 Masse% Dimethylsulfoxid. Der Verbrauch an Präparat beträgt 20 kg/ha bei 1000 Liter Wasserdurchsatz. Als Kontrolle dienen Pflanzen, behandelt mit einem Verdünner ohne Sterilisationsmittel. Die Ergebnisse sind in der Tabelle 1 angegeben.
Der ProzeB wird analog zu dem in Beispiel 1 beschriebenen durchgeführt. Als Sterilisationsmittel verwendet man eine 2%ige waßrige Emulsion von 1,1,3-Tribrom-4-chlorbutan, 1,1,2,3-Tetrabrompropan. Die Prüfergebnisse sind in der Tabelle 1 angegeben.
Der Prozeß wird analog zu dem in Beispiel 1 beschriebenen durchgeführt, nur daß man 1%ige wäßrige Emulsion von 1,2,3-Tribrompropan, 1,2-Dibrompropan, 1,1,3-Tribrom-3--chlorpropan, 1,2-Dibrom-3-chlorpropan, 1,3-Dibrompropan, 1,1,1,3-Tetrabromheptan, 1,1,3-Tribromheptan, 1,2-Dibromheptan verwendet. Die Präparatdosis beträgt 10 kg ha. Die Prüfergebnisse sind in der Tabelle 1 angegeben. Die gleichen Ergebnisse sind bei der Behandlung des Weizens Sorte Mironowskaya 808 in der VI. Periode der Organogenese erhalten.

[3] = system: Sommerweizens Sorte Moskowskaya 35; assay: Field test of gametocidal activity, spring wheat Moskowskaya 35; format: in vivo, Weizen; settings: for Kornzahl der Ähre bei freier Bestäubung / Kornzahl der Ähre im Isolator / Prozentsatz des Ansetzens von Samen bei freier Bestäubung: Moskowskaya 35, period V, 1% aqueous emulsion, 6 kg/ha in 600 l water; for Prozentsatz des Ansetzens von Samen bei freier Bestäubung: control = 100; for pest or weed control at 6000 g/ha: read-out: Prozentsatz der Sterilität
Excerpt: as §1, §2, §3, §4, §5
Pflanzen des Sommerweizens Sorte Moskowskaya 35 werden in der V. Periode der Organogenese (nach Kupermann) mit einer l%igen wäßrigen Emulsion von 1,1,3-Tribrompropan, […], 1,1,2,3-Tetrabrompropan, 1,2,3-Tribrompropan, 1,2-Dibrompropan, 1,1,3-Tribrom-3-chlorpropan, 1,2-Dibrom-3-chlorpropan, 1,3-Dibrompropan, 1,1,1,3-Tetrabromheptan bzw. 1,1,3-Tribromheptan behandelt. Die Emulsion enthält als Emulgierungsmittel 0,5 Masse% C12-C14-Kalzium- alkylbenzolsulfonat und als Adjuvans 0,01 Masse% Dimethylformamid. Der Verbrauch an Präparat beträgt 6 kg/ha bei 600 1 Wasserdurchsatz. Als Kontrolle dienen Pflanzen, behandelt mit dem Verdünner ohne Sterilisationsmittel.
Die Prüfergebnisse sind in der Tabelle 2 angegeben. Die gleichen Ergebnisse sind bei der Behandlung des Sommerweizens Sorte Moskowskaya 35 in der VI.Periode der Organogenese erhalten.

[4] = system: diploidem Roggen Kharkovskaya 55; assay: Field test of gametocidal activity, diploid rye Kharkovskaya 55; format: in vivo; settings: for Prozentsatz des Ansetzens von Samen bei freier Bestäubung: control = 100
Excerpt: as §1, §2, §3, §4, §5
Pflanzen von diploidem Roggen Kharkovskaya 55 werden in der V. Periode der Organogenese mit einer l%igen wäßrigen Emulsion von 1,1,3-Tribrompropan, 1,2,3-Tribrompropan, 1,2-Dibrompropan, 1,1,3-Tribrom-3-chlorpropan, 1,2--Dibrom-3-chlorpropan, 1,1,1,3-Tetrabromheptan, 1,1,3-Tribromheptan bzw. 1,2-Dibromheptan behandelt. Die Emulsion enthält 0,5 Masse% C12-C14-Kalziumalkylbenzolsulfonat und 0,01 Masse% Dimethylformamid als Adjuvans. Der Verbrauch an Präparat beträgt 6 kg/ha bei 600 1 Wasserdurchsatz. Die Prüfergebnisse sind in der Tabelle 13 angegeben. Die gleichen Ergebnisse sind bei der Behandlung von diploidem Roggen Kharkovskaya 55 in der VI. Periode der Organogenese erhalten.

[5] = Mironovskoye 94, period V, 1% aqueous emulsion, 6 kg/ha in 600 l water
[6] = read-out: Prozentsatz der Sterilität
[7] = Chulpan, period V, 1% aqueous emulsion, 10 kg/ha
[8] = Mironowskaya 808, period V of organogenesis, 2% aqueous emulsion, 20 kg/ha in 1000 l water
[9] = Kharkovskaya 55, period V, 1% aqueous emulsion, 6 kg/ha in 600 l water
[10] = Mironowskaya 808, period V of organogenesis, 1% aqueous emulsion, 10 kg/ha

Compound | Kornzahl der Rispe bei freier Bestäubung [1, 5] | Kornzahl der Rispe im Isolator [1, 5] | Prozentsatz des Ansetzens von Samen bei freier Bestäubung [1, 5] | pest or weed control at 6000 g/ha [1, 6] [%] | Kornzahl der Ähre bei freier Bestäubung (diploidem Roggen Chulpan; [7]) | Kornzahl der Ähre im Isolator (diploidem Roggen Chulpan; [7]) | Prozentsatz des Ansetzens von Samen bei freier Bestäubung (diploidem Roggen Chulpan; [7]) | pest or weed control at 10000 g/ha (diploidem Roggen Chulpan; [6]) [%] | Kornzahl der Ähre bei freier Bestäubung [3] | Kornzahl der Ähre im Isolator [3] | Prozentsatz des Ansetzens von Samen bei freier Bestäubung [3] | pest or weed control at 6000 g/ha [3] [%] | Kornzahl der Ähre bei freier Bestäubung [4, 9] | Kornzahl der Ähre im Isolator [4, 9] | Prozentsatz des Ansetzens von Samen bei freier Bestäubung [4, 9] | pest or weed control at 6000 g/ha [4, 6] [%] | Kornzahl der Ähre bei freier Bestäubung [2, 10] | Kornzahl der Ähre im Isolator [2, 10] | Prozentsatz des Ansetzens von Samen bei freier Bestäubung [2, 10] | pest or weed control at 1 %, 10000 g/ha [2] [%] | also measured
BrCCC(Br)Br [Beispiel 1, 1,1,3-Tribrompropan] | 175,1 | 0,0 | 71,6% | 100 | 46,5 | 0,2 | 92,8% | 99.6 | 34,2 | 0,7 | 89,5% | 99.9 | 43,1 | 1,2 | 95,6% | 97.2 |  |  |  |  | Kornzahl der Ähre bei freier Bestäubung [2, 8]: 40,3; Kornzahl der Ähre im Isolator [2, 8]: 0,9; Prozentsatz des Ansetzens von Samen bei freier Bestäubung [2, 8]: 84,0%
BrCC(Br)CBr [Beispiel 4, 1,2,3-Tribrompropan] | 147,5 | 0,0 | 60,2% | 100 | 45,0 | 0,0 | 89,8% | 100 | 34,1 | 0,0 | 89,3% | 100 | 40,5 | 0,6 | 89,8% | 98.6 | 34,8 | 0,0 | 93,3% | 100 | 
CC(Br)CBr (stereo not drawn) [Beispiel 5, 1,2-Dibrompropan] | 160,3 | 0,0 | 65,5% | 100 | 48,2 | 0,0 | 96,2% | 100 | 33,6 | 0,0 | 87,9% | 100 | 42,8 | 0,8 | 94,9% | 98.1 | 36,7 | 0,1 | 98,4% | 99.7 | 
CCCCCC(Br)CBr (stereo not drawn) [Beispiel 11, 1,2-Dibromheptan] | 159,6 | 0,0 | 65,2% |  | 48,3 | 0,0 | 96,4% |  |  |  |  |  | 34,0 | 0,0 | 91,6% |  | 39,7 | 0,0 | 95,4% |  | percent sterility at 6000 g/ha ([1]; Mironovskoye 94, period V, 1% aqueous emulsion, 6 kg/ha in 600 l water, read-out: Prozentsatz der Sterilität): 100%; percent sterility at 10000 g/ha (diploidem Roggen Chulpan; Chulpan, period V, 1% aqueous emulsion, 10 kg/ha, read-out: Prozentsatz der Sterilität): 100%; pest or weed control at 1 %, 10000 g/ha [2, 10]: 100%; percent sterility at 6000 g/ha ([4]; Kharkovskaya 55, period V, 1% aqueous emulsion, 6 kg/ha in 600 l water, read-out: Prozentsatz der Sterilität): 100%
